The structures appear in SMILES notation. Structures can show the parent of a compound that is named as a salt.

For data set [1], the system named is dopamine transporter protein over the norepinephrine transporter protein. Particulars: selectivity for dopamine transporter protein over norepinephrine transporter protein; cited from earlier work.

Consider `CN1Cc2c(ccc3ccoc23)C(c2ccc(F)cc2)C1` (stereo not shown) (as salt: hydrochloride), for which the melting point (as a rule, the temperature, or range, at which the solid turns liquid) was in the range of 242 to 257 °C. For the compound `CN1Cc2c(ccc3ccoc23)C(c2cc(F)cc(F)c2)C1` (stereo not shown) (as salt: hydrochloride), the melting point was in the range of 233 to 236 °C. `CN1Cc2c(ccc3ccoc23)C(c2ccccc2)C1` (single isomer, unassigned): the melting point fell in the range of 81 to 83 °C.

For `Cc1ccc(C2CN(C)Cc3c2ccc2ccoc32)cc1` (single isomer, unassigned) (as salt: hydrochloride), the melting point is 240 to 246 °C. Take `CN1Cc2c(ccc3ccoc23)C(c2ccccc2)C1` (single isomer, unassigned) (as salt: maleate): the melting point was in the range of 165 to 168 °C. Take `Cc1ccc(C2CN(C)Cc3c2ccc2ccoc32)cc1` (single isomer, unassigned) (as salt: maleate): the melting point was in the range of 190 to 191 °C. Regarding `COC(=O)C(c1ccccc1)C1CCCCN1` (stereo not shown) [Methylphenidate, methylphenidate], the “DAT/NET Ki ratio” value in data set [1] is 0.1.
